Key:
[1] = system: HIV-1 clinical isolated, characterised by mutations in the RT gene inducing geno-phenotypic resistance to ABC; assay: p24 production susceptibility test (ACTG protocol), Table 5; format: cell-based; conditions: PBMC, ratio to HIV-IIIB
Source text: (§1) For the phenotype of the nucleosidic, non-nucleosidic and proteases inhibitors was utilised a method which consider the use of human PBMC and the protocol standardised by the AIDS Clinical Trials Group, after verifying the genotype by sequence analysis.
(§2) In order to assay in vitro the susceptibility to chloroquine and hydroxychloroquine of the viral strains, it was used the protocol of the ACTG which is characterised by the measure, of the production of antigen p24 in strongly infected cells.
(§3) The susceptibility of the viral strains to chemotherapics was determined in cell cultures, prepared in 96 wells microplates, using, for the infection, 0.1 MOI.
(§4) The supernatant of the infected cultures (either in absence or in presence of different concentrations of chemotherapic) were tested for the production of p24 after 7 days, using an ELISA test which is commercially available.
(§5) The concentrations of chloroquine and hydroxychloroquine tested ranged from 0.5 to 15 uM. At the same time non-infected cells were incubated with concentrations of chloroquine and hydroxychloroquine ranging from 0 to 50 uM to evaluate the toxicity of the compound.
(§6) After 4 day from the infection, half the cellular medium was replaced with a medium containing the corresponding dilution of chloroquine and hydroxychloroquine. The percentage of inhibition of the HIV replication, induced by chloroquine and hydroxychloroquine, was determined, after 7 day from the infection, comparing the levels of p24 of this cultures and that of the control, infected and not treated with chloroquine and hydroxychloroquine.
(§7) Therefore, the E.C.50 of chloroquine and hydroxychloroquine expresses the concentration of chemotherapic that inhibits the 50% of production of p24 and the values were calculated using linear and non linear regression analysis (the significativity for the non linear regression was R^2>0.95).
(§8) In the same experimental conditions and in the same day, but with similar concentrations of chloroquine and hydroxychloroquine, it was evaluated the vitality of the infect cell cultures, and this was expressed as I.C.50.
(§9) I.C.50 (Inhibitory Concentration) indicates the concentration of the chemotherapic agent inhibiting the vitality of the cell cultures at a rate of 50%, when there is not infection.

[2] = system: HIV clinical isolated, characterised by mutations in the RT gene inducing geno-phenotypic resistance to ddI; assay: p24 production susceptibility test (ACTG protocol), Table 2; format: cell-based, HIV-1; conditions: PBMC, ratio to HIV-IIIB
Source text: as §1, §2, §3, §4, §5, §6, §7, §8, §9

[3] = system: HIV clinical isolated, characterised by mutations in the RT gene inducing geno-phenotypic resistance to AZT; assay: p24 production susceptibility test (ACTG protocol), Table 1; format: cell-based, HIV-1; conditions: PBMC, ratio to HIV-IIIB
Source text: as §1, §2, §3, §4, §5, §6, §7, §8, §9

HIV = conditions: 16 weeks, cited from earlier work
[4] = system: HIV-1 clinical isolated, characterised by mutations in the RT gene inducing geno-phenotypic resistance to d4T; assay: p24 production susceptibility test (ACTG protocol), Table 4; format: cell-based; conditions: PBMC, ratio to HIV-IIIB
Source text: as §1, §2, §3, §4, §5, §6, §7, §8, §9

[5] = system: HIV-1 strains geno-phenotypically resistant to EFV; assay: p24 production susceptibility test, Table 7, MT-2 cells; format: cell-based; conditions: MT-2, ratio to HIV-IIIB
Source text: as §1, §2, §3, §4, §5, §6, §7, §8, §9

[6] = system: HIV-1 strains geno-phenotypically resistant to EFV; assay: as above; format: cell-based; conditions: ratio to HIV-IIIB
[7] = system: HIV-1 clinical isolated, characterised by mutations in the protease gene inducing geno-phenotypic resistance to IDV; assay: p24 production susceptibility test (ACTG protocol), Table 9; format: cell-based; conditions: PBMC, ratio to HIV-IIIB
Source text: as §1, §2, §3, §4, §5, §6, §7, §8, §9

[8] = system: HIV-1 clinical isolated, characterised by mutations on the protease gene inducing geno-phenotypic resistance to NFV; assay: p24 production susceptibility test (ACTG protocol), Table 10, PBMC; format: cell-based; conditions: ratio to HIV-IIIB
Source text: as §1, §2, §3, §4, §5, §6, §7, §8, §9

[9] = system: HIV-1 clinical isolated, characterised by mutations on the protease gene inducing geno-phenotypic resistance to NFV; assay: p24 production susceptibility test, Table 10, H-9 cells; format: cell-based; conditions: H-9, ratio to HIV-IIIB
Source text: as §1, §2, §3, §4, §5, §6, §7, §8, §9

[10] = system: HIV-1 strains geno-phenotypically resistant to NVP; assay: p24 production susceptibility test, Table 6, MT-2 cells; format: cell-based; conditions: MT-2, ratio to HIV-IIIB
Source text: as §1, §2, §3, §4, §5, §6, §7, §8, §9

[11] = system: HIV-1 strains geno-phenotypically resistant to NVP; assay: as above; format: cell-based; conditions: ratio to HIV-IIIB
[12] = system: HIV-1 clinical isolated, characterised by mutations in the protease gene inducing geno-phenotypic resistance to SQV; assay: p24 production susceptibility test (ACTG protocol), Table 8; format: cell-based; conditions: PBMC, ratio to HIV-IIIB
Source text: as §1, §2, §3, §4, §5, §6, §7, §8, §9

In the case of Nc1nc(NC2CC2)c2ncn([C@H]3C=C[C@@H](CO)C3)c2n1 [ABC, Abacavir], the “Fen. ABC (fold)” value ([1]; Gen. K65R L74V M184V) is reported as 10X fold, the “Fen. ABC (fold)” value ([1]; Gen. K65R S68G F77L Y115F Q151M M184V) is reported as 40X fold and the “Fen. ABC (fold)” value ([1]; Gen. L74V M184F) is reported as 10X fold. For the same compound, the “Fen. ABC (fold)” value ([1]; Gen. L74V Y115F M184V) was 10X fold and the “Fen. ABC (fold)” value ([1]; Gen. M41L D67N M184V L210W T215Y) was 10X fold.

For Cc1cn([C@H]2C[C@H](N=[N+]=[N-])[C@@H](CO)O2)c(=O)[nH]c1=O [AZT, Zidovudine], the “Fen. AZT (fold)” value ([2]; Gen D67N K70R M184V T215Y) was 40X fold, the “Fen. AZT (fold)” value ([2]; Gen D67N K70R T215F K70R) was greater than 80X fold and the “Fen. AZT (fold)” value ([2]; Gen K70R T215F K219Q) was 20X fold. The “Fen. AZT (fold)” value ([2]; Gen M4IL M184V L210W R211KL 214F T215Y) was 20X fold, the “Fen. AZT (fold)” value ([2]; Gen M41I T215F) was 40X fold and the “Fen. AZT (fold)” value ([2]; Gen M41L D67N K70R M184V T215Y) was greater than 80X fold. For the same compound, the “Fen. AZT (fold)” value ([2]; Gen M41L D67N K70R T215Y) was greater than 80X fold, the “Fen AZT (fold)” value ([3]; Gen. D67N K70R T215F K219Q) was 20X fold and the “Fen AZT (fold)” value ([3]; Gen. D 67 Ns K 70N T215F K219Q) was greater than 80X fold. The “Fen AZT (fold)” value ([3]; Gen. K70R T215F K219Q) was 20X fold, the “Fen AZT (fold)” value ([3]; Gen. M41I M184V L210W R221K T215Y) was 20X fold and the “Fen AZT (fold)” value ([3]; Gen. M41I T215Y) was 40X fold. For the same compound, the “Fen AZT (fold)” value ([3]; Gen. M41L D67N K70RM 184V T215F) was greater than 80X fold, the “Fen AZT (fold)” value ([3]; Gen. M41LD 76N K70R T215Y) was greater than 80X fold and the negative events (HIV; hydroxychloroquine 800 mg/day, AZT 500 mg/day) was “no negative events were observed”. For the same compound, the “patients with an increase of the plasmatic viremia at the end of the treatment” value (HIV; AZT 500 mg/day (n=37)) was 8 patients.

For Cc1cn([C@H]2C=C[C@@H](CO)O2)c(=O)[nH]c1=O [D4T, Stavudine], the “Fen. D4T (fold)” value ([4]; Gen. K65R F77L Y115F Q151M M184V) was 40X fold, the “Fen. D4T (fold)” value ([4]; Gen. K65R F116Y Q151M) was 40X fold and the “Fen. D4T (fold)” value ([4]; Gen. M41I T69SSS T215Y) was 10X fold. For the same compound, the “Fen. D4T (fold)” value ([4]; Gen. T69SSS T215Y) was 10X fold and the “Fen. D4T (fold)” value ([4]; Gen. V75I F77L F116Y Q151M) was 20X fold.

In the case of O=C1Nc2ccc(Cl)cc2[C@@](C#CC2CC2)(C(F)(F)F)O1 [EFV, Efavirenz], the “Fen. EFV (fold)” value ([5]; Gen. K101D K103N) is reported as greater than 80X fold, the “Fen. EFV (fold)” value ([5]; Gen. K103N Y181C) is reported as greater than 80X fold and the “Fen. EFV (fold)” value ([5]; Gen. L100I K103N) is reported as greater than 80X fold. The “Fen. EFV (fold)” value ([6]; Gen. K103N V108D) was greater than 80X fold, the “Fen. EFV (fold)” value ([6]; Gen. K103N) was greater than 80X fold and the “Fen. EFV (fold)” value ([6]; Gen. Y181C) was 20X fold.

For CC(C)(C)NC(=O)[C@@H]1CN(Cc2cccnc2)CCN1C[C@@H](O)C[C@@H](Cc1ccccc1)C(=O)N[C@H]1c2ccccc2C[C@H]1O [IDV, Indinavir], the “Fen. IDV (fold)” value ([7]; Gen. G48V V82A) was greater than 80X fold, the “Fen. IDV (fold)” value ([7]; Gen. I84V L90M) was 20X fold and the “Fen. IDV (fold)” value ([7]; Gen. K20R E35D M36I I54V V82T) was 10X fold. The “Fen. IDV (fold)” value ([7]; Gen. L10R M46I L63P V82T) was 10X fold and the “Fen. IDV (fold)” value ([7]; Gen. V82F L90M) was greater than 80X fold.

In the case of Cc1c(O)cccc1C(=O)N[C@@H](CSc1ccccc1)[C@H](O)CN1C[C@H]2CCCC[C@H]2C[C@H]1C(=O)NC(C)(C)C [NFV, Nelfinavir], the “Fen. NFV (fold)” value ([8]; Gen. D30N A71V) is reported as 30X fold, the “Fen. NFV (fold)” value ([8]; Gen. D30N M46V A71V) is reported as 30X fold and the “Fen. NFV (fold)” value ([8]; Gen. G48V V92A) is reported as greater than 80X fold. The “Fen. NFV (fold)” value ([8]; Gen. V82F L90M) was greater than 80X fold, the “Fen. NFV (fold)” value ([9]; Gen. D30N) was 30X fold and the “Fen. NFV (fold)” value ([9]; Gen. V82A) was 20X fold.

With Cc1ccnc2c1NC(=O)c1cccnc1N2C1CC1 [NVP, Nevirapine] the “Fen. NVP (fold)” value ([10]; Gen. G190E) was greater than 80X fold, the “Fen. NVP (fold)” value ([10]; Gen. V106A) was greater than 80X fold and the “Fen. NVP (fold)” value ([11]; Gen. K103N) was greater than 80X fold. For the same compound, the “Fen. NVP (fold)” value ([11]; Gen. Y181C) was greater than 80X fold.

With CC(C)(C)NC(=O)[C@@H]1C[C@@H]2CCCC[C@@H]2CN1C[C@@H](O)[C@H](Cc1ccccc1)NC(=O)[C@H](CC(N)=O)NC(=O)c1ccc2ccccc2n1 [SQV, Saquinavir] the “Fen. SQV (fold)” value ([12]; Gen. G48V I84V A74V L90M) was 40X fold, the “Fen. SQV (fold)” value ([12]; Gen. G48V V82A) was greater than 80X fold and the “Fen. SQV (fold)” value ([12]; Gen. I84V L90M) was greater than 80X fold. For the same compound, the “Fen. SQV (fold)” value ([12]; Gen. M46I G48V L63P L90M) was 20X fold and the “Fen. SQV (fold)” value ([12]; Gen. V82A L90M) was 20X fold.
